From US20230148070A1, “AMINO ACID DERIVATIVES AND THEIR USE AS FLAVOR MODIFIERS” (Firmenich SA, priority 2020, published 2023)

What was measured:
[1] = Sensory Testing 1: Savory Model (trained panel, umami and saltiness); assay type: in vivo; conditions: 10 ppm; panel of 20-22 trained panelists; score on scale -5 (strong masking) to 5 (strong enhancing), 0 = reference water solution with 0.25% NaCl and 0.05% MSG
Protocol: Each of Compound 101, Compound 102, Compound 103, Compound 104, Compound 105, Compound 106, Compound 107, Compound 108 and Compound 109 was tested for taste properties, particularly umami and saltiness. A panel of 20-22 trained panelists evaluated the samples of each test compound at 10 ppm for umami taste properties and saltiness taste properties, and scored the solutions on a scale ranging from −5 to 5 (with −5 denoting a strong masking effect, and 5 denoting a strong enhancing effect, and 0 representing the intensity of a reference water solution containing 0.25% sodium chloride (NaCl) and 0.05% monosodium glutamate (MSG), respectively).

[2] = Sensory Testing 2: Chicken Soup (expert panel, salt, umami, meaty, kokumi); assay type: in vivo; conditions: 10 ppm, panel of 8 experts, score on scale -5 to 5, 0 = reference water solution with 1.26% Chicken base, 0.7% NaCl, 0.04% MSG; for Mouth-coating / Round / Thick: kokumi
Protocol: Each of Compound 103, Compound 104 and Compound 109 was tested for flavor, taste and mouthfeel properties, particularly kokumi. A panel of 8 experts evaluated the samples of each test compound at 10 ppm for salt, umami, meaty, and kokumi (mouthcoating, round and thick) properties, and scored the solutions on a scale ranging from −5 to 5 (with −5 denoting a strong masking effect, and 5 denoting a strong enhancing effect, and 0 representing the intensity of a reference water solution containing 1.26% Chicken base, 0.7% NaCl, and 0.04% MSG, respectively).

| SMILES | Saltiness [1] | Umami [1] | Meaty [2] | Saltiness [2] | Umami [2] | Mouth-coating [2] | Round [2] | Thick [2] |
| --- | --- | --- | --- | --- | --- | --- | --- | --- |
| CC(C)NC(=O)CCC(N)C(=O)O (stereo not drawn) [Compound 101] | 0.79 | 0.06 | – | – | – | – | – | – |
| NC(CCC(=O)NCCO)C(=O)O (stereo not drawn) [Compound 102] | 0.44 | 0.46 | – | – | – | – | – | – |
| NC(CCC(=O)NCCCC(=O)O)C(=O)O (stereo not drawn) [Compound 103] | 0.64 | 0.73 | 0.67 | 0.67 | 0.83 | 1.08 | 0.92 | 0.92 |
| C[C@H](CNC(=O)CC[C@H](N)C(=O)O)C(=O)O [Compound 104] | 0.96 | 0.32 | 0.42 | 0.75 | 0.75 | 0.75 | 0.50 | 0.58 |
| COc1ccc(CNC(=O)CCC(N)C(=O)O)cc1 (stereo not drawn) [Compound 105] | 0.38 | 0.76 | – | – | – | – | – | – |
| NC(CCC(=O)NCCc1ccc(O)cc1)C(=O)O (stereo not drawn) [Compound 106] | 0.33 | 0.51 | – | – | – | – | – | – |
| N=C(N)NCCCC(NC(=O)CCC(=O)O)C(=O)O (stereo not drawn) [Compound 107] | 0.61 | 0.66 | – | – | – | – | – | – |
| N=C(N)NCCCC(NC(=O)c1ccc(O)cc1)C(=O)O (stereo not drawn) [Compound 108] | 0.49 | 0.47 | – | – | – | – | – | – |
| C[C@@H](CNC(=O)CC[C@H](N)C(=O)O)C(=O)O [Compound 109] | 0.58 | 0.50 | 0 | 0.92 | 0.58 | 0.83 | 0.58 | 0.83 |
